The values below come from patent publication US20240317716A1, “METHOD FOR PREPARING XANTHINE OXIDASE INHIBITOR” (LG CHEM, LTD., priority 2021, published 2024).

A short description of the series: Solubility of 1-(3-cyano-1-isopropyl-indol-5-yl)pyrazole-4-carboxylic acid in organic solvents. The format is physicochemical. The conditions noted are these: organic solvent or mixture.

Converted amounts (≈) assume the structure as drawn.

Regarding `CC(C)n1cc(C#N)c2cc(-n3cc(C(=O)O)cn3)ccc21` [1-(3-Cyano-1-isopropyl-indol-5-yl)pyrazole-4-carboxylic acid], the solubility (in ACN) is at most 100 µg/mL, the solubility (in EtOAc) is at most 100 µg/mL, the solubility (in MeOH) was at most 100 µg/mL and the solubility (in acetone) lay in the range of 100 to 1000 µg/mL (≈ 340 to 3400 µM).
